Laboratory results reported in patent US9340590B2 (priority 2011, dated 2016).
Read-outs that look alike come from different tables or passages of the source. Positions of bridges follow the written chain, without caps; N, C: chain ends. Residues, ends and D or L forms follow the SMILES beside them.

Assays:
hNav1.7 [1] = molecular target: T1, hNav1.7 (Homo sapiens, UniProt Q15858); test: cell-based; type: cell-based; details: IonWorks Quattro; clamped to −110 mV, depolarized to −10 mV, 5 min after compound; n=2; read-out: IWQ Use Nav1.7
T1 sequence (Q15858 whole entry, looked up): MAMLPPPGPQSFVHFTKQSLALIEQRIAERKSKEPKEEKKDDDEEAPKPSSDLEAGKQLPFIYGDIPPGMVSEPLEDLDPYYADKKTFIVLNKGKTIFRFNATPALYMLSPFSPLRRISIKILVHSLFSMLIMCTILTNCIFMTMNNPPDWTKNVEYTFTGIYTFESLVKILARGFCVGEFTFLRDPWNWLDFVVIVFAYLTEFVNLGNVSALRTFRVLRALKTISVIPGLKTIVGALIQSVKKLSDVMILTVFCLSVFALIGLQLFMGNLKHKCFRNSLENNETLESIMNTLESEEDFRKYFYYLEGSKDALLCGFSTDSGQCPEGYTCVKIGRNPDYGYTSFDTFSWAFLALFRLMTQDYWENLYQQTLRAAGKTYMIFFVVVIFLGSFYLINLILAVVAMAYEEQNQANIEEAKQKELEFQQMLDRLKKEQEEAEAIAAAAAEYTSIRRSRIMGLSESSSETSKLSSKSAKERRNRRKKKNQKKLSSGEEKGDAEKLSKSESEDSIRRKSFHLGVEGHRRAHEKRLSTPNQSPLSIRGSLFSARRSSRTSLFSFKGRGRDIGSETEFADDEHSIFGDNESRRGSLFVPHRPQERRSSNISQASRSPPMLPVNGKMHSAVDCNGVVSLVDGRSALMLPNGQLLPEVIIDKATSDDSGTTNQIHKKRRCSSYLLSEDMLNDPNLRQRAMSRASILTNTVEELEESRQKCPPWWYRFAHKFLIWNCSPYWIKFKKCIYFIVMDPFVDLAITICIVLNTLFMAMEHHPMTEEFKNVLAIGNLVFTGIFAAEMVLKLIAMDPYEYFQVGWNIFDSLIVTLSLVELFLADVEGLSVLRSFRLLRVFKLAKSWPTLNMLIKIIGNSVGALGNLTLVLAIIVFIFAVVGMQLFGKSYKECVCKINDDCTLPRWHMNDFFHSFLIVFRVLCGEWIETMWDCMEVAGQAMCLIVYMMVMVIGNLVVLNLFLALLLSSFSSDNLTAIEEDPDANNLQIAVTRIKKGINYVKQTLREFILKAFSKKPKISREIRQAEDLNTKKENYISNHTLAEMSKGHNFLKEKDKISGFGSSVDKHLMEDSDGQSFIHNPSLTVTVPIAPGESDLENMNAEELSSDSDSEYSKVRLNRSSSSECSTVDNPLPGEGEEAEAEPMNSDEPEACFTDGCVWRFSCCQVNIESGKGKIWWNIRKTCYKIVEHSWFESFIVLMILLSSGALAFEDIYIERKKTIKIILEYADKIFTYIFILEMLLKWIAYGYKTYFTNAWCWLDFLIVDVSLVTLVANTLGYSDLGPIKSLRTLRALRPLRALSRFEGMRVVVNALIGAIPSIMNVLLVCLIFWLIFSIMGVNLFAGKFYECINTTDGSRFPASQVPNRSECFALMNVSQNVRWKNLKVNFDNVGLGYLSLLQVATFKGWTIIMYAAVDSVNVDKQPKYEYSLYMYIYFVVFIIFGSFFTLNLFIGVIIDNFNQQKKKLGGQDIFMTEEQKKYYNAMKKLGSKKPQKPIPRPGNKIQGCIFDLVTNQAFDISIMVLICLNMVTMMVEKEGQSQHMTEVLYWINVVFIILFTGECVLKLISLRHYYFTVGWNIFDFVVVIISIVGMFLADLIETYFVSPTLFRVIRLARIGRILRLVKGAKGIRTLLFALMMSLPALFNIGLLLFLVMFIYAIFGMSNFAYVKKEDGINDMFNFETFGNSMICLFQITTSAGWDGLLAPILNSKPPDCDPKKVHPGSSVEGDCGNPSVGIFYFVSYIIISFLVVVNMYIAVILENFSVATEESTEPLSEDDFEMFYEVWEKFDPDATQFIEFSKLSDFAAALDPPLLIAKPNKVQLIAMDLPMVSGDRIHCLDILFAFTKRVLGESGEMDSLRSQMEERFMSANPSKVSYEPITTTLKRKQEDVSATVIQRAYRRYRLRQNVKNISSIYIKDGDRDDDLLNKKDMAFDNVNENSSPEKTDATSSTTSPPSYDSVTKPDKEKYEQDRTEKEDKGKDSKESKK

hNav1.5 [2] = molecular target: T2, hNav1.5 (Homo sapiens, UniProt Q14524); test: cell-based
T2 sequence (Q14524 whole entry, looked up): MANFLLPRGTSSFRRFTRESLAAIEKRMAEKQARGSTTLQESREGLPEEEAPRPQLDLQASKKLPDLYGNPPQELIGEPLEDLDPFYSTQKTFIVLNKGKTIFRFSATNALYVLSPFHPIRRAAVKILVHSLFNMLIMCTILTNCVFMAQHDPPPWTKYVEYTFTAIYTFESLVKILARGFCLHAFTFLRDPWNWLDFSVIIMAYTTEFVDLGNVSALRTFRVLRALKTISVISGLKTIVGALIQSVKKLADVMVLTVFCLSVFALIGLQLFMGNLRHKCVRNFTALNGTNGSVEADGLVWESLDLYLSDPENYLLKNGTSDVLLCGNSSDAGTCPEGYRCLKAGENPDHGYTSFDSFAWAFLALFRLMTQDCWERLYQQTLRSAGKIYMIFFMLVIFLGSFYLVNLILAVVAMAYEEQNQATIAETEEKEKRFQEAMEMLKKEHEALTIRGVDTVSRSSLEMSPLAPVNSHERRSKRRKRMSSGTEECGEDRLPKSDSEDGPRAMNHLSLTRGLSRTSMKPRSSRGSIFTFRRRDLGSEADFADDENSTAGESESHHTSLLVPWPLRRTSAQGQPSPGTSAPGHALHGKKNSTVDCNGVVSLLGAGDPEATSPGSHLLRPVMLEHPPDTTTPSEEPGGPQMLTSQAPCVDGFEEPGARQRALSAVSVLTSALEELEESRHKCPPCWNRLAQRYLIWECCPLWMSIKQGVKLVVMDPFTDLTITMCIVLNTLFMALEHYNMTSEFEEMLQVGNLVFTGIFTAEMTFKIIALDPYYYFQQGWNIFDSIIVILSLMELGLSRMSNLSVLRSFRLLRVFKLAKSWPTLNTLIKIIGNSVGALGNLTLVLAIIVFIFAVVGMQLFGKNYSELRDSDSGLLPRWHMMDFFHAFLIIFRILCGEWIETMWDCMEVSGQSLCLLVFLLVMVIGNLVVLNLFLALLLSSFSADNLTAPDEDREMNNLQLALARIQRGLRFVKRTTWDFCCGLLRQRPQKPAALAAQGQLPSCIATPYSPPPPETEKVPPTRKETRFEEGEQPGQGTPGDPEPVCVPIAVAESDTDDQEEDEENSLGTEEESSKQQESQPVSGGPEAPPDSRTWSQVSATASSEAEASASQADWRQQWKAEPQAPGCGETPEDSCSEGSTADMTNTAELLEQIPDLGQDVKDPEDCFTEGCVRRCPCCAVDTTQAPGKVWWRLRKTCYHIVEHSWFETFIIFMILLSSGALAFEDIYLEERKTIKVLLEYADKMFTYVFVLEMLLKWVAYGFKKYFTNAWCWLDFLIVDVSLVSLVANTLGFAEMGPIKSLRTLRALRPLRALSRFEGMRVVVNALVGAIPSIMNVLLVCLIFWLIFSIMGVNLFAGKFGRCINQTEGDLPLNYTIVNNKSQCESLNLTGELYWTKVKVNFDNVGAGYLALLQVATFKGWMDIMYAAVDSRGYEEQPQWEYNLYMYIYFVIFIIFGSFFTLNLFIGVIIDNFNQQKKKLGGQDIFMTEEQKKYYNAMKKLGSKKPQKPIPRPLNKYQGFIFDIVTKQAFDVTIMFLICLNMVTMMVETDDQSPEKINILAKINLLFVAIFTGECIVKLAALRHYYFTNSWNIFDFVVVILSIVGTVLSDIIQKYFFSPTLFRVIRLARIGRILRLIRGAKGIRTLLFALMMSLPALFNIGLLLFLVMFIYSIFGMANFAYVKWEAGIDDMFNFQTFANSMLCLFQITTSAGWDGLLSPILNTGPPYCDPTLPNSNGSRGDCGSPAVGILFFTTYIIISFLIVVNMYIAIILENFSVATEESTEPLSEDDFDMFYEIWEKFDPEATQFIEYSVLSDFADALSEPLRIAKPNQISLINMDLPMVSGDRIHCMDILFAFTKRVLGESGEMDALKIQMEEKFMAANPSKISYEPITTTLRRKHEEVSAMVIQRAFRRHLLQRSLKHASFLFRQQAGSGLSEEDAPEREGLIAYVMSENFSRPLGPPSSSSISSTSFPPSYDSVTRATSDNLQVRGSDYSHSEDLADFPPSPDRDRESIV

hNav1.3 [3] = molecular target: T3, hNav1.3 (Homo sapiens, UniProt Q9NY46); test: cell-based
hNav1.7 [4] = molecular target: T1, hNav1.7; test: cell-based
hNav1.3 [5] = molecular target: T3, hNav1.3; test: cell-based; type: cell-based; details: Nav1.3 Use IC50
hNav1.5 [6] = molecular target: T2, hNav1.5; test: cell-based; remark: listed apart in the source
[7] = system: locomotor activity in male CD-1 mice; details: 5 mg/kg s.c.; for total basic movement / total fine movement / total rearing / total time rearing: later studies (FIGS. 99-110), 1-hour pre-treatment
[8] = IonWorks Quattro, clamped to −110 mV, depolarized to −10 mV, 5 min after compound, n=2, read-out: IWQ Use Nav1.5
[9] = IonWorks Quattro, clamped to −110 mV, depolarized to −10 mV, 5 min after compound, n=2, read-out: IWQ Use Nav1.3

| Structure (SMILES) | IC50 (hNav1.7 [1]) | IC50 (hNav1.5 [2]; [8]) | IC50 (hNav1.3 [3]; [9]) | IC50 (hNav1.7 [4]; read-out: Nav1.7 Use IC50) | IC50 (hNav1.3 [5]) | IC50 (hNav1.5 [6]) | IC50 (hNav1.5 [2]; IWQ Use Nav1.5) | IC50 (hNav1.7 [4]; Nav1.7 Use IC50) | IC50 (hNav1.3 [3]) | locomotor activity in the open field analysis [7] | total basic movement [7] | total fine movement [7] | total rearing [7] | total time rearing [7] |
| --- | --- | --- | --- | --- | --- | --- | --- | --- | --- | --- | --- | --- | --- | --- |
| CCCC[C@@H]1NC(=O)[C@H](Cc2ccccc2)NC(=O)CNC(=O)[C@H](CC(C)C)NC(=O)[C@@H](NC(=O)[C@@H](N)CC(=O)O)CSSC[C@@H]2NC(=O)[C@@H]3CSSC[C@@H](C(=O)N[C@@H](CCCCN)C(=O)N[C@@H](Cc4ccc(O)cc4)C(=O)N[C@H](C(=O)N[C@@H](Cc4ccccc4)C(N)=O)C(C)C)NC(=O)[C@H](Cc4c[nH]c5ccccc45)NC(=O)[C@H](CCCCN)NC(=O)[C@H](Cc4c[nH]cn4)NC(=O)[C@H]([C@@H](C)O)NC(=O)[C@H](CCCNC(=N)N)NC(=O)[C@H](CO)NC(=O)[C@H](CSSC[C@H](NC(=O)[C@H](CCCCN)NC(=O)[C@H](CCCNC(=N)N)NC1=O)C(=O)N[C@@H]([C@@H](C)CC)C(=O)N1CCC[C@H]1C(=O)N[C@@H](CC(=O)O)C(=O)N[C@@H](CC(N)=O)C(=O)N[C@@H](CC(=O)O)C(=O)N[C@@H](CCCCN)C(=O)N3)NC(=O)[C@H](C(C)C)NC(=O)[C@H](CC(C)C)NC(=O)[C@H](CC(N)=O)NC(=O)[C@@H]1CCCN1C(=O)[C@H](CCCNC(=N)N)NC2=O [SEQ ID NO: 123] | 50 nM | 4.5 µM | 20 nM | 8 nM | 9 nM | 1150 nM | – | – | – | – | – | – | – | – |
| CC[C@H](C)[C@@H]1NC(=O)[C@@H]2CSSC[C@@H]3NC(=O)[C@H](C(C)C)NC(=O)[C@H](CC(C)C)NC(=O)[C@H](CC(N)=O)NC(=O)[C@@H]4CCCN4C(=O)[C@H](CCCNC(=N)N)NC(=O)[C@H](CSSC[C@H](NC(=O)[C@@H](N)CC(=O)O)C(=O)N[C@@H](CC(C)C)C(=O)NCC(=O)N[C@@H](Cc4ccccc4)C(=O)N[C@@H](Cc4cccc5ccccc45)C(=O)N[C@@H](CCCNC(=N)N)C(=O)N[C@@H](CCCCN)C(=O)N2)NC(=O)[C@H](CSSC[C@@H](C(=O)N[C@@H](CCCCN)C(=O)N[C@@H](Cc2ccc(O)cc2)C(=O)N[C@H](C(=O)N[C@@H](Cc2ccccc2)C(N)=O)C(C)C)NC(=O)[C@H](Cc2c[nH]c4ccccc24)NC(=O)[C@H](CCCCN)NC(=O)[C@H](Cc2c[nH]cn2)NC(=O)[C@H]([C@@H](C)O)NC(=O)[C@H](CCCNC(=N)N)NC(=O)[C@H](CO)NC3=O)NC(=O)[C@H](CCCCN)NC(=O)[C@H](CC(=O)O)NC(=O)[C@H](CC(N)=O)NC(=O)[C@H](CC(=O)O)NC(=O)[C@@H]2CCCN2C1=O [SEQ ID NO: 161] | 7 nM | – | 6 nM | – | 4 nM | 358 nM | 2.34 µM | 3 nM | – | – | – | – | – | – |
| CC[C@H](C)[C@@H]1NC(=O)[C@@H]2CSSC[C@@H]3NC(=O)[C@H](C(C)C)NC(=O)[C@H](CC(C)C)NC(=O)[C@H](CC(N)=O)NC(=O)[C@@H]4CCCN4C(=O)[C@H](CCCNC(=N)N)NC(=O)[C@H](CSSC[C@H](NC(=O)[C@@H](N)CC(=O)O)C(=O)N[C@@H](CC(C)C)C(=O)NCC(=O)N[C@@H](CC4CCCCC4)C(=O)N[C@@H](CCSC)C(=O)N[C@@H](CCCNC(=N)N)C(=O)N[C@@H](CCCCN)C(=O)N2)NC(=O)[C@H](CSSC[C@@H](C(=O)N[C@@H](CCCCN)C(=O)N[C@@H](Cc2ccc(O)cc2)C(=O)N[C@H](C(=O)N[C@@H](Cc2ccccc2)C(N)=O)C(C)C)NC(=O)[C@H](Cc2c[nH]c4ccccc24)NC(=O)[C@H](CCCCN)NC(=O)[C@H](Cc2cnc[nH]2)NC(=O)[C@H]([C@@H](C)O)NC(=O)[C@H](CCCNC(=N)N)NC(=O)[C@H](CO)NC3=O)NC(=O)[C@H](CCCCN)NC(=O)[C@H](CC(=O)O)NC(=O)[C@H](CC(N)=O)NC(=O)[C@H](CC(=O)O)NC(=O)[C@@H]2CCCN2C1=O [SEQ ID NO: 243] | 10 nM | 6.99 µM | – | – | 7 nM | 3390 nM | – | 3 nM | 20 nM | – | – | – | – | – |
| CC[C@H](C)[C@@H]1NC(=O)[C@@H]2CSSC[C@@H]3NC(=O)[C@H](C(C)C)NC(=O)[C@H](CC(C)C)NC(=O)[C@H](CC(N)=O)NC(=O)[C@@H]4CCCN4C(=O)[C@H](CCCNC(=N)N)NC(=O)[C@H](CSSC[C@H](NC(=O)[C@@H](N)CC(=O)O)C(=O)N[C@@H](CC(C)C)C(=O)NCC(=O)N[C@@H](Cc4ccccc4)C(=O)N[C@@H](CCSC)C(=O)N[C@@H](CCCNC(=N)N)C(=O)N[C@@H](CCCCN)C(=O)N2)NC(=O)[C@H](CSSC[C@@H](C(=O)N[C@@H](CCCCN)C(=O)N[C@@H](Cc2ccc(O)cc2)C(=O)N[C@H](C(=O)N[C@@H](Cc2ccccc2)C(N)=O)C(C)C)NC(=O)[C@H](Cc2c[nH]c4ccccc24)NC(=O)[C@H](CCC(=O)O)NC(=O)[C@H](Cc2cnc[nH]2)NC(=O)[C@H]([C@@H](C)O)NC(=O)[C@H](CCCNC(=N)N)NC(=O)[C@H](CO)NC3=O)NC(=O)[C@H](CCCCN)NC(=O)[C@H](CC(=O)O)NC(=O)[C@H](CC(N)=O)NC(=O)[C@H](CC(=O)O)NC(=O)[C@@H]2CCCN2C1=O [[Glu28]GpTx-1(1-34)] (H-DCLGFMRKCIPDNDKCCRPNLVCSRTHEWCKYVF-NH2; disulfide 2-17, 9-23, 16-30) | – | – | – | – | – | – | – | – | – | significantly reduced locomotor activity | significantly reduced | significantly reduced | significantly reduced | significantly reduced |
| CC[C@H](C)[C@@H]1NC(=O)[C@@H]2CSSC[C@@H]3NC(=O)[C@H](C(C)C)NC(=O)[C@H](CC(C)C)NC(=O)[C@H](CC(N)=O)NC(=O)[C@@H]4CCCN4C(=O)[C@H](CCCNC(=N)N)NC(=O)[C@H](CSSC[C@H](NC(=O)[C@@H](N)CC(=O)O)C(=O)N[C@@H](CC(C)C)C(=O)NCC(=O)N[C@@H](Cc4ccccc4)C(=O)N[C@@H](CCSC)C(=O)N[C@@H](CCCNC(=N)N)C(=O)N[C@@H](CCCCN)C(=O)N2)NC(=O)[C@H](CSSC[C@@H](C(=O)N[C@@H](CCCCN)C(=O)N[C@@H](Cc2ccc(O)cc2)C(=O)N[C@H](C(=O)N[C@@H](Cc2ccccc2)C(N)=O)C(C)C)NC(=O)[C@H](CCC(=O)O)NC(=O)[C@H](CCCCN)NC(=O)[C@H](Cc2cnc[nH]2)NC(=O)[C@H]([C@@H](C)O)NC(=O)[C@H](CCCNC(=N)N)NC(=O)[C@H](CO)NC3=O)NC(=O)[C@H](CCCCN)NC(=O)[C@H](CC(=O)O)NC(=O)[C@H](CC(N)=O)NC(=O)[C@H](CC(=O)O)NC(=O)[C@@H]2CCCN2C1=O [[Glu29]GpTx-1(1-34)] (H-DCLGFMRKCIPDNDKCCRPNLVCSRTHKECKYVF-NH2; disulfide 2-17, 9-23, 16-30) | – | – | – | – | – | – | – | – | – | – | did not significantly decrease | not significantly affected | did not significantly decrease | not significantly affected |
